Reference: the supplement of paper PMC10307832

Tests used:
Experiment in all cases: relative viability (nuclei count vs DMSO), 5 days (fraction); higher = more cells survive
Midostaurin + Alpelisib = compound: CO[C@@H]1[C@H](N(C)C(=O)c2ccccc2)C[C@H]2O[C@]1(C)n1c3ccccc3c3c4c(c5c6ccccc6n2c5c31)C(=O)NC4 [Midostaurin] + Cc1nc(NC(=O)N2CCC[C@H]2C(N)=O)sc1-c1ccnc(C(C)(C)C(F)(F)F)c1 [Alpelisib] (partner 2 µM)
Summary of the method: (§1)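 Nuclei were stained with Hoechst during a one-step fixation (final 0.05% Triton X-100, 1% formaldehyde, 1 ug/ml Hoechst) carried out 5 days after dosing, then counted on 4× images. The cells, lung cancer lines in 1536-well plates, had been dosed by pin tool the day after seeding with one drug alone or a fixed anchor-drug dose plus five library-drug doses (not always all listed) in √10 steps. Relative viability is the nuclei count in treated wells divided by that in vehicle wells, and each value is the median of duplicate plates.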

[1] = compound: COc1cc(-c2nn([C@H]3CC[C@H](N4CCN(C(C)=O)CC4)CC3)c3ncnc(N)c23)ccc1NC(=O)c1cc2ccccc2n1C + Nc1ncn([C@H]2C[C@H](O)[C@@H](CO)O2)c(=O)n1 [Decitabine] (partner 2 µM)
Summary of the method: as §1

[2] = compound: COc1cc(-c2nn([C@H]3CC[C@H](N4CCN(C(C)=O)CC4)CC3)c3ncnc(N)c23)ccc1NC(=O)c1cc2ccccc2n1C + C[C@@H](Oc1cc(-c2cnn(C3CCNCC3)c2)cnc1N)c1c(Cl)ccc(F)c1Cl [Crizotinib] (partner 1 µM)
Summary of the method: as §1

[3] = compound: CO[C@@H]1[C@H](N(C)C(=O)c2ccccc2)C[C@H]2O[C@]1(C)n1c3ccccc3c3c4c(c5c6ccccc6n2c5c31)C(=O)NC4 [Midostaurin] + CC(=O)c1c(C)c2cnc(Nc3ccc(N4CCNCC4)cn3)nc2n(C2CCCC2)c1=O [Palbociclib] (partner 0.5 µM)
Summary of the method: as §1

Midostaurin + AZD7762 = compound: CO[C@@H]1[C@H](N(C)C(=O)c2ccccc2)C[C@H]2O[C@]1(C)n1c3ccccc3c3c4c(c5c6ccccc6n2c5c31)C(=O)NC4 [Midostaurin] + NC(=O)Nc1cc(-c2cccc(F)c2)sc1C(=O)N[C@H]1CCCNC1 [AZD7762] (partner 0.2 µM)
Summary of the method: as §1

With LCLC-97TM1 the relative viability (Midostaurin + Alpelisib; first compound 0.01 µM) was 0.251, the relative viability (Midostaurin + Alpelisib; first compound 0.1 µM) was 0.185 and the relative viability (Midostaurin + Alpelisib; first compound 0.3162 µM) was 0.211. The relative viability ([1]; first compound 0.0128 µM) was 0.295, the relative viability ([1]; first compound 0.04048 µM) was 0.224 and the relative viability ([1]; first compound 0.128 µM) was 0.257. It also gave a relative viability ([1]; first compound 1.28 µM) of 0.235, a relative viability ([2]; first compound 0.0128 µM) of 0.364 and a relative viability ([2]; first compound 0.04048 µM) of 0.409. The relative viability ([2]; first compound 0.128 µM) was 0.359, the relative viability ([2]; first compound 1.28 µM) was 0.519 and the relative viability ([3]; first compound 0.01 µM) was 0.276. It also gave a relative viability ([3]; first compound 0.03162 µM) of 0.233, a relative viability ([3]; first compound 0.1 µM) of 0.251 and a relative viability ([3]; first compound 0.3162 µM) of 0.244. The relative viability (Midostaurin + AZD7762; first compound 0.01 µM) was 0.169, the relative viability (Midostaurin + AZD7762; first compound 0.03162 µM) was 0.287 and the relative viability (Midostaurin + AZD7762; first compound 0.1 µM) was 0.223. It also gave a relative viability (Midostaurin + AZD7762; first compound 0.3162 µM) of 0.275.
With NCI-H727 the relative viability (Midostaurin + Alpelisib; first compound 0.01 µM) was 0.526, the relative viability (Midostaurin + Alpelisib; first compound 0.03162 µM) was 0.471 and the relative viability (Midostaurin + Alpelisib; first compound 0.1 µM) was 0.538. It also gave a relative viability (Midostaurin + Alpelisib; first compound 0.3162 µM) of 0.296, a relative viability ([1]; first compound 0.0128 µM) of 0.925 and a relative viability ([1]; first compound 0.128 µM) of 1.01. It also gave a relative viability ([1]; first compound 1.28 µM) of 0.84, a relative viability ([2]; first compound 0.0128 µM) of 0.745 and a relative viability ([2]; first compound 0.128 µM) of 0.626. For the same cell line, the relative viability ([2]; first compound 1.28 µM) was 0.587, the relative viability ([3]; first compound 0.01 µM) was 0.628 and the relative viability ([3]; first compound 0.03162 µM) was 0.666. The relative viability ([3]; first compound 0.1 µM) was 0.66, the relative viability ([3]; first compound 0.3162 µM) was 0.634 and the relative viability (Midostaurin + AZD7762; first compound 0.01 µM) was 0.616. It also gave a relative viability (Midostaurin + AZD7762; first compound 0.03162 µM) of 0.696, a relative viability (Midostaurin + AZD7762; first compound 0.1 µM) of 0.947 and a relative viability (Midostaurin + AZD7762; first compound 0.3162 µM) of 0.639.
In the case of NCI-H1355, the relative viability (Midostaurin + Alpelisib; first compound 0.01 µM) is reported as 0.827, the relative viability (Midostaurin + Alpelisib; first compound 0.03162 µM) is reported as 0.788 and the relative viability (Midostaurin + Alpelisib; first compound 0.1 µM) is reported as 0.748. It also gave a relative viability (Midostaurin + Alpelisib; first compound 0.3162 µM) of 0.814, a relative viability ([1]; first compound 0.0128 µM) of 0.332 and a relative viability ([1]; first compound 0.04048 µM) of 0.35. For the same cell line, the relative viability ([1]; first compound 0.128 µM) was 0.338, the relative viability ([1]; first compound 1.28 µM) was 0.372 and the relative viability ([2]; first compound 0.0128 µM) was 1.15. The relative viability ([2]; first compound 0.04048 µM) was 1.07, the relative viability ([2]; first compound 0.128 µM) was 1.06 and the relative viability ([2]; first compound 1.28 µM) was 0.946. The relative viability ([3]; first compound 0.01 µM) was 0.409, the relative viability ([3]; first compound 0.03162 µM) was 0.429 and the relative viability ([3]; first compound 0.1 µM) was 0.443. The relative viability ([3]; first compound 0.3162 µM) was 0.468, the relative viability (Midostaurin + AZD7762; first compound 0.01 µM) was 0.703 and the relative viability (Midostaurin + AZD7762; first compound 0.03162 µM) was 0.798. For the same cell line, the relative viability (Midostaurin + AZD7762; first compound 0.1 µM) was 0.766 and the relative viability (Midostaurin + AZD7762; first compound 0.3162 µM) was 0.674.
HOP-62 gave a relative viability (Midostaurin + Alpelisib; first compound 0.01 µM) of 0.957, a relative viability (Midostaurin + Alpelisib; first compound 0.03162 µM) of 0.636 and a relative viability (Midostaurin + Alpelisib; first compound 0.1 µM) of 0.913. For the same cell line, the relative viability (Midostaurin + Alpelisib; first compound 0.3162 µM) was 1.32, the relative viability ([1]; first compound 0.0128 µM) was 0.241 and the relative viability ([1]; first compound 0.04048 µM) was 0.191. For the same cell line, the relative viability ([1]; first compound 0.128 µM) was 0.207, the relative viability ([1]; first compound 1.28 µM) was 0.283 and the relative viability ([2]; first compound 0.0128 µM) was 0.887. For the same cell line, the relative viability ([2]; first compound 0.04048 µM) was 0.957, the relative viability ([2]; first compound 0.128 µM) was 0.803 and the relative viability ([2]; first compound 1.28 µM) was 0.714. For the same cell line, the relative viability ([3]; first compound 0.01 µM) was 0.452, the relative viability ([3]; first compound 0.03162 µM) was 0.48 and the relative viability ([3]; first compound 0.1 µM) was 0.455. For the same cell line, the relative viability ([3]; first compound 0.3162 µM) was 0.501, the relative viability (Midostaurin + AZD7762; first compound 0.01 µM) was 0.527 and the relative viability (Midostaurin + AZD7762; first compound 0.03162 µM) was 0.568. For the same cell line, the relative viability (Midostaurin + AZD7762; first compound 0.1 µM) was 0.727 and the relative viability (Midostaurin + AZD7762; first compound 0.3162 µM) was 0.553.
In the case of NCI-H2085, the relative viability (Midostaurin + Alpelisib; first compound 0.01 µM) is reported as 0.961, the relative viability (Midostaurin + Alpelisib; first compound 0.03162 µM) is reported as 0.9 and the relative viability (Midostaurin + Alpelisib; first compound 0.1 µM) is reported as 0.907. For the same cell line, the relative viability (Midostaurin + Alpelisib; first compound 0.3162 µM) was 0.788, the relative viability ([1]; first compound 0.0128 µM) was 0.579 and the relative viability ([1]; first compound 0.04048 µM) was 0.436. For the same cell line, the relative viability ([1]; first compound 0.128 µM) was 0.58, the relative viability ([1]; first compound 1.28 µM) was 0.553 and the relative viability ([2]; first compound 0.0128 µM) was 0.86. For the same cell line, the relative viability ([2]; first compound 0.04048 µM) was 0.912, the relative viability ([2]; first compound 0.128 µM) was 0.977 and the relative viability ([2]; first compound 1.28 µM) was 0.695. For the same cell line, the relative viability ([3]; first compound 0.01 µM) was 0.497, the relative viability ([3]; first compound 0.03162 µM) was 0.467 and the relative viability ([3]; first compound 0.1 µM) was 0.491. For the same cell line, the relative viability ([3]; first compound 0.3162 µM) was 0.494, the relative viability (Midostaurin + AZD7762; first compound 0.01 µM) was 0.938 and the relative viability (Midostaurin + AZD7762; first compound 0.03162 µM) was 0.998. The relative viability (Midostaurin + AZD7762; first compound 0.1 µM) was 0.93 and the relative viability (Midostaurin + AZD7762; first compound 0.3162 µM) was 0.623.
